Measured values taken from patent publication US10159640B2, “Prebiotic oral care compositions containing amino acids” (COLGATE-PALMOLIVE COMPANY, priority 2013, dated 2018).

How the values were obtained:
Format in all cases: cell-based
Tannerella forsythia = assay: Metabolic activity, Biolog phenotype microarray; settings: control without dipeptide = 1
Procedure: (§1) The extent of metabolic activity of the tested bacteria in the presence of the above-mentioned dipeptides after 24 hours and 48 hours was investigated through a high throughput phenotype microarray system (PM) for microbial cells (Biolog Inc.). Each PM can contain up to 95 different biochemical compounds (e.g. di-peptides) that may act as substrates for bacteria as well as one negative control, not containing the substrates. Microarray plates were used in which the different wells of each plate were pre-loaded (by the manufacturer, Biolog Inc.) with different di-peptides to be tested. Each bacterial species was tested using a separate microarray plate. Thus, a single bacterial species was tested with a variety of dipeptides on each particular plate. The microarrays are based on redox technology, using cell respiration as a universal reporter. Active cell respiration results in the reduction of a tetrazolium dye and in the formation of a strong color—for example, when using the tetrazolium dye “Biolog Redox Dye Mix D”, the color changes from transparent/colourless to purple when the dye is reduced. The observation of this color change indicates which of the substrates improve the metabolic activity and health of the cells. Each bacterial species was collected from blood agar plates (incubated for 48 hours anaerobically at 37° C.) and transferred to an IF-0 Base inoculation fluid (Biolog Inc.), which is a nutritionally poor medium. The resulting cell suspension was adjusted to a transmittance of 42% (relative to the transmittance of the base inoculation fluid with no bacterial species present) at 492 nm using a BioRad SmartSpec 3000 Photometer (the adjustment being effected by adding either further inoculation fluid or further bacteria until the transmittance of 42% was achieved). A 1:5 dilution of this suspension was prepared by mixing 3 mL of the 42% transmittance cell suspension with 15 mL of an inoculation fluid (which inoculation fluid was formed by mixing 11.6 mL sterile water, 62.5 mL IF-0 base inoculation fluid and 0.9 mL of the tetrazolium dye “Biolog Redox Dye mix D”), resulting in a final cell density which was equal to 85% transmittance using a BioRad SmartSpec 3000 Photometer. 680 μL of a 2M sodium succinate/200 μM ferric citrate solution in distilled water was added to 68 mL of the 85% transmittance cell suspension and 100 μL of this mixture was added to each well (the various di-peptides being already present in powder form in the relevant wells of the plate as obtained from the supplier i.e. Biolog Inc.). All plates were incubated in an anaerobic atmosphere at 37° C. Color changes were measured spectrophotometrically at 492 nm (Thermo Scientific Multiskan Ascent) at 24 hrs and 48 hrs using the same plate at both time points. […] After 24 hrs and 48 hrs under continuous shaking in a Multiscan microplate reader, the optical density (OD) of the synthetic medium at 24 hours and 48 hours was measured (using the microplate reader) at a wavelength of 492 nm for each combination of bacterium/dipeptide, and for each of their respective controls (i.e. which contained the particular bacterium but no dipeptide). […] The experiment was carried out three times for each combination of bacterium with dipeptide, with each repeat being carried out on a different day (thus providing three biological replicas). The controls were also carried out three times, as above. The values shown are the average (mean) of the three single values obtained (as detailed above) for each combination of bacterium with dipeptide, at 24 hrs and at 48 hrs.

[1] = system: Aggregatibacter actinomycetemcomitans; assay: Metabolic activity, Biolog phenotype microarray; settings: control without dipeptide = 1
Procedure: as §1

Streptococcus salivarius = assay: Metabolic activity, Biolog phenotype microarray; settings: control without dipeptide = 1
Procedure: as §1

Streptococcus sobrinus = assay: Metabolic activity, Biolog phenotype microarray; settings: control without dipeptide = 1
Procedure: as §1

Prevotella intermedia = assay: Metabolic activity, Biolog phenotype microarray; settings: control without dipeptide = 1
Procedure: as §1

Actinomyces naeslundii = assay: Metabolic activity, Biolog phenotype microarray; settings: control without dipeptide = 1
Procedure: as §1

Porphyromonas gingivalis = assay: Metabolic activity, Biolog phenotype microarray; settings: control without dipeptide = 1
Procedure: as §1

Streptococcus gordonii = assay: Metabolic activity, Biolog phenotype microarray; settings: control without dipeptide = 1
Procedure: as §1

Streptococcus sanguinis = assay: Metabolic activity, Biolog phenotype microarray; settings: control without dipeptide = 1
Procedure: as §1

Streptococcus mitis = assay: Metabolic activity, Biolog phenotype microarray; settings: control without dipeptide = 1
Procedure: as §1

Streptococcus mutans = assay: Metabolic activity, Biolog phenotype microarray; settings: control without dipeptide = 1
Procedure: as §1

Actinomyces viscosus = assay: Metabolic activity, Biolog phenotype microarray; settings: control without dipeptide = 1
Procedure: as §1

Fusobacterium nucleatum = assay: Metabolic activity, Biolog phenotype microarray; settings: control without dipeptide = 1
Procedure: as §1

Capnocytophaga sputigena = assay: Metabolic activity, Biolog phenotype microarray; settings: control without dipeptide = 1
Procedure: as §1

Veillonella parvula = assay: Metabolic activity, Biolog phenotype microarray; settings: control without dipeptide = 1
Procedure: as §1

[2] = system: beneficial oral bacteria and pathogenic oral bacteria; assay: Metabolic activity, whole panel: prebiotic effect; settings: threshold value of 2
Procedure: Substrates that were able to increase the metabolic activity of at least one of the above beneficial bacteria while not or only minimally increasing the growth of the pathogenic bacteria are considered to be prebiotic substrates. The extent of metabolic activity of the tested bacteria in the presence of the above-mentioned dipeptides after 24 hours and 48 hours was investigated through a high throughput phenotype microarray system (PM) for microbial cells (Biolog Inc.). Each PM can contain up to 95 different biochemical compounds (e.g. di-peptides) that may act as substrates for bacteria as well as one negative control, not containing the substrates. Microarray plates were used in which the different wells of each plate were pre-loaded (by the manufacturer, Biolog Inc.) with different di-peptides to be tested. Each bacterial species was tested using a separate microarray plate. Thus, a single bacterial species was tested with a variety of dipeptides on each particular plate. The microarrays are based on redox technology, using cell respiration as a universal reporter. Active cell respiration results in the reduction of a tetrazolium dye and in the formation of a strong color—for example, when using the tetrazolium dye “Biolog Redox Dye Mix D”, the color changes from transparent/colourless to purple when the dye is reduced. The observation of this color change indicates which of the substrates improve the metabolic activity and health of the cells. Each bacterial species was collected from blood agar plates (incubated for 48 hours anaerobically at 37° C.) and transferred to an IF-0 Base inoculation fluid (Biolog Inc.), which is a nutritionally poor medium. The resulting cell suspension was adjusted to a transmittance of 42% (relative to the transmittance of the base inoculation fluid with no bacterial species present) at 492 nm using a BioRad SmartSpec 3000 Photometer (the adjustment being effected by adding either further inoculation fluid or further bacteria until the transmittance of 42% was achieved). A 1:5 dilution of this suspension was prepared by mixing 3 mL of the 42% transmittance cell suspension with 15 mL of an inoculation fluid (which inoculation fluid was formed by mixing 11.6 mL sterile water, 62.5 mL IF-0 base inoculation fluid and 0.9 mL of the tetrazolium dye “Biolog Redox Dye mix D”), resulting in a final cell density which was equal to 85% transmittance using a BioRad SmartSpec 3000 Photometer. 680 μL of a 2M sodium succinate/200 μM ferric citrate solution in distilled water was added to 68 mL of the 85% transmittance cell suspension and 100 μL of this mixture was added to each well (the various di-peptides being already present in powder form in the relevant wells of the plate as obtained from the supplier i.e. Biolog Inc.). All plates were incubated in an anaerobic atmosphere at 37° C. Color changes were measured spectrophotometrically at 492 nm (Thermo Scientific Multiskan Ascent) at 24 hrs and 48 hrs using the same plate at both time points. […] After 24 hrs and 48 hrs under continuous shaking in a Multiscan microplate reader, the optical density (OD) of the synthetic medium at 24 hours and 48 hours was measured (using the microplate reader) at a wavelength of 492 nm for each combination of bacterium/dipeptide, and for each of their respective controls (i.e. which contained the particular bacterium but no dipeptide). […] The experiment was carried out three times for each combination of bacterium with dipeptide, with each repeat being carried out on a different day (thus providing three biological replicas). The controls were also carried out three times, as above. The values shown are the average (mean) of the three single values obtained (as detailed above) for each combination of bacterium with dipeptide, at 24 hrs and at 48 hrs. […] This value was selected in order to exclude low-stimulating metabolites and avoid false positive results.

| Substance | metabolic activity: OD 492 nm divided by OD of control (Tannerella forsythia; 24 hrs) | metabolic activity: OD 492 nm divided by OD of control (Tannerella forsythia; 48 hrs) | metabolic activity: OD 492 nm divided by OD of control ([1]; 24 hrs) | metabolic activity: OD 492 nm divided by OD of control ([1]; 48 hrs) | metabolic activity: OD 492 nm divided by OD of control (Streptococcus salivarius; 24 hrs) | metabolic activity: OD 492 nm divided by OD of control (Streptococcus salivarius; 48 hrs) | metabolic activity: OD 492 nm divided by OD of control (Streptococcus sobrinus; 24 hrs) | metabolic activity: OD 492 nm divided by OD of control (Streptococcus sobrinus; 48 hrs) | metabolic activity: OD 492 nm divided by OD of control (Prevotella intermedia; 24 hrs) | metabolic activity: OD 492 nm divided by OD of control (Prevotella intermedia; 48 hrs) | metabolic activity: OD 492 nm divided by OD of control (Actinomyces naeslundii; 24 hrs) | metabolic activity: OD 492 nm divided by OD of control (Actinomyces naeslundii; 48 hrs) | metabolic activity: OD 492 nm divided by OD of control (Porphyromonas gingivalis; 24 hrs) | metabolic activity: OD 492 nm divided by OD of control (Porphyromonas gingivalis; 48 hrs) | metabolic activity: OD 492 nm divided by OD of control (Streptococcus gordonii; 24 hrs) | metabolic activity: OD 492 nm divided by OD of control (Streptococcus gordonii; 48 hrs) | metabolic activity: OD 492 nm divided by OD of control (Streptococcus sanguinis; 24 hrs) | metabolic activity: OD 492 nm divided by OD of control (Streptococcus sanguinis; 48 hrs) | metabolic activity: OD 492 nm divided by OD of control (Streptococcus mitis; 24 hrs) | metabolic activity: OD 492 nm divided by OD of control (Streptococcus mitis; 48 hrs) | further results |
| --- | --- | --- | --- | --- | --- | --- | --- | --- | --- | --- | --- | --- | --- | --- | --- | --- | --- | --- | --- | --- | --- |
| Ser-Gln | 1.1929 | 1.4647 | 0.9996 | 1.1574 | 1.1847 | 1.6185 | 1.1504 | 1.6280 | 1.2382 | 1.3661 | 1.2183 | 1.5857 | 1.1453 | 1.4999 | 0.9754 | 1.4584 | 1.1901 | 1.6298 | 1.0595 | 1.5980 | metabolic activity: OD 492 nm divided by OD of control (Streptococcus mutans; 24 hrs): 1.2511; metabolic activity: OD 492 nm divided by OD of control (Streptococcus mutans; 48 hrs): 1.7642; metabolic activity: OD 492 nm divided by OD of control (Actinomyces viscosus; 24 hrs): 1.6173; metabolic activity: OD 492 nm divided by OD of control (Actinomyces viscosus; 48 hrs): 2.0308; metabolic activity: OD 492 nm divided by OD of control (Fusobacterium nucleatum; 24 hrs): 1.2502; metabolic activity: OD 492 nm divided by OD of control (Fusobacterium nucleatum; 48 hrs): 1.6185; metabolic activity: OD 492 nm divided by OD of control (Capnocytophaga sputigena; 24 hrs): 2.2409; metabolic activity: OD 492 nm divided by OD of control (Capnocytophaga sputigena; 48 hrs): 1.6963; metabolic activity: OD 492 nm divided by OD of control (Veillonella parvula; 24 hrs): 0.8812; metabolic activity: OD 492 nm divided by OD of control (Veillonella parvula; 48 hrs): 0.8706; prebiotic effects (metabolic activity) ([2]; 24 hrs): exhibited prebiotic effects; prebiotic effects (metabolic activity) ([2]; 48 hrs): exhibited prebiotic effects |
| Trp-Leu | 1.0234 | 1.1079 | 1.0357 | 1.1455 | 1.0960 | 1.1505 | 1.1681 | 1.2761 | 1.0663 | 1.0399 | 1.1778 | 1.4354 | 1.0236 | 1.2127 | 1.2109 | 1.2858 | 0.9310 | 0.9561 | 1.0445 | 1.0524 | metabolic activity: OD 492 nm divided by OD of control (Streptococcus mutans; 24 hrs): 1.0145; metabolic activity: OD 492 nm divided by OD of control (Streptococcus mutans; 48 hrs): 1.1337; metabolic activity: OD 492 nm divided by OD of control (Actinomyces viscosus; 24 hrs): 1.6496; metabolic activity: OD 492 nm divided by OD of control (Actinomyces viscosus; 48 hrs): 2.0774; metabolic activity: OD 492 nm divided by OD of control (Fusobacterium nucleatum; 24 hrs): 0.9945; metabolic activity: OD 492 nm divided by OD of control (Fusobacterium nucleatum; 48 hrs): 1.0254; metabolic activity: OD 492 nm divided by OD of control (Capnocytophaga sputigena; 24 hrs): 0.8565; metabolic activity: OD 492 nm divided by OD of control (Capnocytophaga sputigena; 48 hrs): 0.9454; metabolic activity: OD 492 nm divided by OD of control (Veillonella parvula; 24 hrs): 0.8734; metabolic activity: OD 492 nm divided by OD of control (Veillonella parvula; 48 hrs): 0.7918; prebiotic effects (metabolic activity) ([2]; 48 hrs): exhibited prebiotic effects |
| Glu-Trp | 0.9320 | 0.9303 | 0.9494 | 0.8665 | 1.0068 | 0.9525 | 1.0018 | 0.9874 | 1.0170 | 0.9148 | 1.1008 | 1.2040 | 0.9385 | 0.8770 | 1.1537 | 1.4320 | 0.9983 | 1.0208 | 0.9457 | 0.9396 | metabolic activity: OD 492 nm divided by OD of control (Streptococcus mutans; 24 hrs): 0.9492; metabolic activity: OD 492 nm divided by OD of control (Streptococcus mutans; 48 hrs): 1.0170; metabolic activity: OD 492 nm divided by OD of control (Actinomyces viscosus; 24 hrs): 1.5845; metabolic activity: OD 492 nm divided by OD of control (Actinomyces viscosus; 48 hrs): 2.1016; metabolic activity: OD 492 nm divided by OD of control (Fusobacterium nucleatum; 24 hrs): 0.9011; metabolic activity: OD 492 nm divided by OD of control (Fusobacterium nucleatum; 48 hrs): 0.8364; metabolic activity: OD 492 nm divided by OD of control (Capnocytophaga sputigena; 24 hrs): 1.7818; metabolic activity: OD 492 nm divided by OD of control (Capnocytophaga sputigena; 48 hrs): 1.4150; metabolic activity: OD 492 nm divided by OD of control (Veillonella parvula; 24 hrs): 0.8378; metabolic activity: OD 492 nm divided by OD of control (Veillonella parvula; 48 hrs): 0.7873; prebiotic effects (metabolic activity) ([2]; 48 hrs): exhibited prebiotic effects |
